Reference: ChEMBL document CHEMBL4411299, “A class of novel tubulin polymerization inhibitors exert effective anti-tumor activity via mitotic catastrophe” (Eur J Med Chem, 2019)
The source made the active and inactive calls. No cut-off for these calls is given here.

Tests used:
[1] = test system: HeLa; assay: Antitumor activity against human HeLa cells xenografted in nude mouse assessed as tumor weight at 10 mg/kg, iv administered every other day up to 20 days (reference value: 1.014 +/- 0.116g); type: functional
[2] = MRT (0 to infinity) in Sprague-Dawley rat at 1.5 mg/kg, iv administered as single dose by LC-MS/MS analysis; type: ADME, organism-based; details: in vivo
[3] = AUC (0 to infinity) in female Sprague-Dawley rat at 1.5 mg/kg, iv administered as single dose by LC-MS/MS analysis; type: ADME, organism-based; parameters: dose 1.5 mg/kg, time infinity, route intravenous; details: in vivo
[4] = test system: HeLa; assay: Cell cycle arrest in human HeLa cells assessed as reduction in accumulation of cells at G1 phase up to 0.4 uM after 24 hrs by propidium iodide staining-based flow cytometric analysis; type: functional
[5] = Clearance in Sprague-Dawley rat at 1.5 mg/kg, iv administered as single dose by LC-MS/MS analysis; type: ADME, organism-based; details: in vivo
[6] = test system: HeLa; assay: Induction of apoptosis in human HeLa cells assessed as viable cells at 0.1 uM after 24 hrs by Annexin V-FITC/propidium iodide staining-based flow cytometric analysis (reference value: 92.8%); type: functional; details: read-out: Activity
[7] = Toxicity in mouse xenografted with human HeLa cells assessed as change in spleen weight at 5 to 20 mg/kg, iv administered every other day up to 20 days; type: organism-based; details: in vivo, 480 h
[8] = Apparent volume of distribution in male Sprague-Dawley rat at 1.5 mg/kg, iv administered as single dose by LC-MS/MS analysis; type: ADME, organism-based; details: in vivo, read-out: Vd(app)
[9] = test system: HT-29; assay: Antiproliferative activity against human HT-29 cells after 48 hrs by MTT assay; type: functional; details: HT-29, 48 h
[10] = test system: HeLa; assay: Induction of apoptosis in human HeLa cells assessed as viable cells at 0.05 uM after 24 hrs by Annexin V-FITC/propidium iodide staining-based flow cytometric analysis (reference value: 92.8%); type: functional; details: read-out: Activity
[11] = test system: HeLa; assay: Antitumor activity against human HeLa cells xenografted in nude mouse assessed as tumor weight at 20 mg/kg, iv administered every other day up to 20 days (reference value: 1.014 +/- 0.116g); type: functional
[12] = test system: HeLa; assay: Induction of apoptosis in human HeLa cells assessed as early apoptotic cells at 0.05 uM after 24 hrs by Annexin V-FITC/propidium iodide staining-based flow cytometric analysis (reference value: 3.65%); type: functional
[13] = test system: A2780; assay: Antiproliferative activity against human A2780 cells after 48 hrs by MTT assay; type: functional; details: A2780, 48 h
[14] = target: T1, Tubulin (Homo sapiens) (UniProt P68371+Q9H4B7+P0DPH7+P68366+Q13509+Q71U36+P04350+Q3ZCM7+P07437+P68363+Q9BQE3+Q6PEY2+Q13885+Q9BVA1+Q9BUF5); assay: Inhibition of tubulin polymerization in human HeLa cells assessed as induction of shorter microtubule fibers at 0.02 uM after 12 hrs by DAPI staining-based confocal fluorescence microscopic analysis; type: cell-based
[15] = Toxicity in mouse xenografted with human HeLa cells assessed as effect on body weight at 5 to 20 mg/kg, iv administered every other day up to 20 days; type: organism-based; details: in vivo, 480 h
[16] = Half life in monkey liver microsomes at 5 uM in presence of NADPH regenerating system by LC-MS/MS analysis; type: ADME, Macaca mulatta, Microsome; details: rhesus monkey
[17] = Half life in rat liver microsomes at 5 uM in presence of NADPH regenerating system by LC-MS/MS analysis; type: ADME, Microsome
[18] = test system: HeLa; assay: Induction of apoptosis in human HeLa cells assessed as early apoptotic cells at 0.1 uM after 24 hrs by Annexin V-FITC/propidium iodide staining-based flow cytometric analysis (reference value: 3.65%); type: functional
[19] = test system: HeLa; assay: Antitumor activity against human HeLa cells xenografted in nude mouse assessed as tumor weight at 5 mg/kg, iv administered every other day up to 20 days (reference value: 1.014 +/- 0.116g); type: functional
[20] = Cmax in male Sprague-Dawley rat at 1.5 mg/kg, iv administered as single dose by LC-MS/MS analysis; type: ADME, organism-based; parameters: dose 1.5 mg/kg, route intravenous; details: in vivo
[21] = MRT (0 to infinity) in female Sprague-Dawley rat at 1.5 mg/kg, iv administered as single dose by LC-MS/MS analysis; type: ADME, organism-based; details: in vivo
[22] = Clearance in female Sprague-Dawley rat at 1.5 mg/kg, iv administered as single dose by LC-MS/MS analysis; type: ADME, organism-based; details: in vivo
[23] = target: T1, Tubulin (Homo sapiens); assay: Inhibition of tubulin polymerization in human HeLa cells assessed as induction of microtubule fiber breakdown at 0.02 uM after 12 hrs by DAPI staining-based confocal fluorescence microscopic analysis; type: cell-based
[24] = test system: HepG2; assay: Antiproliferative activity against human HepG2 cells after 48 hrs by MTT assay; type: functional; details: HepG2, 48 h
[25] = target: T1, Tubulin (Homo sapiens); assay: Inhibition of tubulin polymerization in human HeLa cells assessed as multipolar spindle formation at 0.02 after 12 hrs by DAPI staining-based confocal fluorescence microscopic analysis; type: cell-based
[26] = test system: A549; assay: Antiproliferative activity against human A549 cells after 48 hrs by MTT assay; type: functional; details: A549, 48 h
[27] = Cmax in Sprague-Dawley rat at 1.5 mg/kg, iv administered as single dose by LC-MS/MS analysis; type: ADME, organism-based; parameters: dose 1.5 mg/kg, route intravenous; details: in vivo
[28] = test system: HeLa; assay: Induction of apoptosis in human HeLa cells assessed as necrotic cells at 0.1 uM after 24 hrs by Annexin V-FITC/propidium iodide staining-based flow cytometric analysis (reference value: 0.05%); type: functional
[29] = target: T1, Tubulin (Homo sapiens); assay: Inhibition of tubulin polymerization in human HeLa cells assessed as induction of mitotic phase arrest at 0.02 uM after 12 hrs by DAPI staining-based confocal fluorescence microscopic analysis; type: cell-based
[30] = Half life in Sprague-Dawley rat at 1.5 mg/kg, iv administered as single dose by LC-MS/MS analysis; type: ADME, organism-based; details: in vivo
[31] = AUC (0 to t) in male Sprague-Dawley rat at 1.5 mg/kg, iv administered as single dose by LC-MS/MS analysis; type: ADME, organism-based; details: in vivo
[32] = test system: MDA-MB-231; assay: Antiproliferative activity against human MDA-MB-231 cells after 48 hrs by MTT assay; type: functional; details: MDA-MB-231, 48 h
[33] = MRT (0 to t) in Sprague-Dawley rat at 1.5 mg/kg, iv administered as single dose by LC-MS/MS analysis; type: ADME, organism-based; details: in vivo
[34] = test system: HeLa; assay: Induction of apoptosis in human HeLa cells assessed as necrotic cells at 0.05 uM after 24 hrs by Annexin V-FITC/propidium iodide staining-based flow cytometric analysis (reference value: 0.05%); type: functional
[35] = test system: HeLa; assay: Inhibition of colony formation in human HeLa cells at 0.1 uM after 2 weeks by crystal violet staining-based assay relative to control; type: functional; details: 336 h
[36] = Apparent volume of distribution in Sprague-Dawley rat at 1.5 mg/kg, iv administered as single dose by LC-MS/MS analysis; type: ADME, organism-based; details: in vivo, read-out: Vd(app)
[37] = Apparent volume of distribution in female Sprague-Dawley rat at 1.5 mg/kg, iv administered as single dose by LC-MS/MS analysis; type: ADME, organism-based; details: in vivo, read-out: Vd(app)

## COC(=O)N1N=C(c2cccc(C)c2)CC1c1cc(OC)c(OC)c(OC)c1 (configuration not stated)
[1]
  Activity: 0.631 g
[2]
  MRT inf: 1.09 h
[3]
  AUC(0-inf): 336 ng·h/mL
[4]
  Activity: Active
[5]
  clearance: 65.3 mL/min/kg
[6]
  viability at 0.1 µM: 75.8%
[7]
  Activity: Non-Toxic
[8]
  Vd: 3.82 L/kg
[9]
  GI50: 100 nM
[10]
  viability at 0.05 µM: 84.4%
[11]
  Activity: 0.266 g
[12]
  Activity: 10.2%
[13]
  GI50: 600 nM
[14]
  Activity: Active
[15]
  Activity: Non-Toxic
[16]
  half-life at 5 µM: 2.06 h
[17]
  half-life at 5 µM: 0.617 h
[18]
  Activity: 17.3%
[19]
  Activity: 0.812 g
[20]
  Cmax: 658 ng/mL
[21]
  MRT inf: 1.18 h
[22]
  clearance: 79.7 mL/min/kg
[23]
  Activity: Active
[24]
  GI50: 980 nM
[25]
  Activity: Active
[26]
  GI50: 300 nM
[27]
  Cmax: 594 ng/mL
[28]
  Activity: 0.829%
[29]
  Activity: Active
[30]
  half-life: 0.9 h
[31]
  AUC(0-t): 475 ng·h/mL
[32]
  GI50: 140 nM
[33]
  MRT last: 0.91 h
[34]
  Activity: 0.46%
[35]
  inhibition at 0.1 µM: ≤ 80%
[36]
  Vd: 5.03 L/kg
[37]
  Vd: 6.24 L/kg
